Data: a melting point compilation (Tetko et al.; mined from patent text by program, amines drawn as free bases though some values may be those of a salt)

Structure (SMILES) | melting point
Cc1cc(CN2C(=O)C(C3=NS(=O)(=O)c4c(CN(C)S(C)(=O)=O)cccc43)=C(O)C2C(C)(C)C)ccc1F (configuration not stated) | 105 to 109 °C
C#Cc1ccc(I)c(Oc2cnc(N)nc2N)c1 | 156 to 159 °C
O=[N+]([O-])c1ccc(-n2cnc(CO)c2)c(F)c1 | 157 to 159 °C
Cc1ccc(C(=O)NCC(=O)N2CC2C#N)cc1 (configuration not stated) | 92 to 94 °C
COC(=O)Nc1cc(C(C)(C)C)on1 | 55.5 to 58.5 °C
CC(C)(C(=O)Nc1cccc(C(F)(F)F)c1)N1COC(C(F)F)=C(c2ccccc2)C1=O | 58 to 60 °C
Cc1oc(-c2ccc(C(F)(F)F)cc2)nc1CCl | 84 to 85 °C
CCOc1nn(C(=O)NS(=O)(=O)Cl)c(=O)n1C | 106 °C
Nc1ncc(C#Cc2ccc(Cl)cc2)c(OCCOCCO)n1 | 142 to 143 °C
Cc1cc(C)c(-c2csc3c(Cl)cc(C)nc23)c(C)c1 | 129 to 131 °C
CSc1ccc2c(c1)C(SCCBr)Cc1ccccc1O2 (configuration not stated) | 64 to 66 °C
Cc1c(C(=O)N[C@H](C)[C@](O)(Cn2cncn2)c2ccc(F)cc2F)cnn1-c1ccc(Br)cc1 | 153 to 154 °C
CC(O)CN1CCN(c2cccc3c2OCCO3)CC1 (configuration not stated) | 92 °C
O=C1CCCCN1CCCOC1c2ccccc2C(=O)N1c1ccc2ccc(Cl)nc2n1 (configuration not stated) | 140 °C
CC(C)Oc1cc(CO)n(Cc2ccc(Cl)cc2Cl)n1 | 89 to 90 °C
CC/C(=C(\c1ccc(I)cc1)c1ccc(OCCCCCS(=O)CCCC(F)(F)C(F)(F)F)cc1)c1ccccc1 (configuration not stated) | 85 to 87 °C
CC=CC(=O)N1CCN(NC(=O)c2ccc(F)cc2)CC1 | 191 to 193 °C
Cc1cc(C(=O)C2=NOC(c3cc(Cl)cc(Cl)c3)(C(F)(F)F)C2)ccc1S(=O)(=O)NCc1ccccn1 (configuration not stated) | 57 to 58 °C
S=C(NCCCN1CCCC1)NCCN(Cc1ccc(Cl)c(Cl)c1)c1ccc(Br)cn1 | 123 to 125 °C
Cc1cc(-c2nc3ccccc3c(=O)n2-c2ccc(Br)cc2)ccc1OCCO | 92 to 93 °C
O=C1NCCN1C1CCC(NCC(O)COc2ccc(OCC3CC3)cc2)CC1 (configuration not stated) | 163 to 165 °C
O=C(Cc1cccnc1)N1CCC(C2=c3ccc(Cl)cc3=CCc3c(Cl)ccnc32)CC1 | 100 to 103 °C

Structure (SMILES) | melting point
COc1ccc2cc3c(c(-c4ccc5c(c4)OCO5)c2c1)CNC3=O | 259 to 262 °C
O=C(N=CNO)c1nccc2c1[nH]c1ccccc12 | 235 to 240 °C
O=c1oc2c(c(OCCN3CCOCC3)c1-c1ccccc1)CCCC2 | 115 °C
CNc1nc2ccc(CCc3nc4cc(C)ccn4c3C)cc2o1 | 203 to 205 °C
Cc1nc2c(OCc3c(Cl)ccc(NC(C)C)c3Cl)cccn2c1Br | 133 to 134 °C
CC(C(=O)C(C)(C)CF)n1cncn1 (configuration not stated) | 62 to 78 °C
N#Cc1c(-c2sc(Cl)c(Cl)c2Cl)[nH]c(C(F)(F)F)c1Br | 221 to 224 °C
CCCCCCCCCCC1(CCCCCCCCCC)c2cc(C=Cc3ccncc3)ccc2-c2ccc(N(c3ccccc3)c3ccccc3)cc21 | 88.4 to 89.3 °C
NC(=O)c1cn(C(CO)c2ccccc2)cn1 (configuration not stated) | 147 to 149 °C
CNc1cc(F)ccc1C(=O)CS(C)=O (configuration not stated) | 129 to 134 °C
Cc1ccc2c(c1)c(N1CCN(C(=O)c3cccs3)CC1)c(C#N)c(=O)n2CCN1CCOCC1 | 207 °C
COc1cccc2c(Cl)c(C)c(C)nc12 | 130 °C
CC1=C(C(=O)OC(C)C)C(c2cccc([N+](=O)[O-])c2)C(C(=O)C(C)S(=O)(=O)NC(C)C)=C(C)N1 (configuration not stated) | 117 to 120 °C
CC(=O)Nc1ccc(-c2cc(C(=O)c3ccncc3)sc2N2CCOCC2)cc1 | 149 °C
CCC(=O)c1[nH]c2cc(Cl)ccc2c1N | 144 to 146 °C
Nc1ccc(NC2CCCCCC2)c([N+](=O)[O-])c1 | 153 °C
CC1=Nc2c(C)nn(C)c2C2=NC(C)C(C)N12 (configuration not stated) | 280 °C
Cc1ccc(C(=O)NC(NC(=S)Nc2ccc(F)cc2F)C(F)(F)F)cc1 (configuration not stated) | 202 to 204 °C
CCCN(CCCN1C(=O)c2ccccc2S1(=O)=O)C1CCc2cccc(OC)c2C1 (configuration not stated) | 131 °C
CCSC(C)(C)C(=O)C(C(=O)Nc1cc(NC(=O)CCCOc2ccc(C(C)(C)CC)cc2C(C)(C)CC)ccc1OC)N1C(=O)OC(C)(C)C1=O (configuration not stated) | 155 to 156 °C
Cn1cc(C=O)cc1C(=O)OC(C)(C)C | 92 °C
N#Cc1[nH]c(-c2ccc(Cl)cc2)c(Br)c1-c1ccc(Cl)cc1 | 98 to 100 °C

Structure (SMILES) | melting point
CS(=O)(=O)c1ccc(-c2cnn(CC(F)(F)F)c(=O)c2Oc2ccc(-c3ccccc3)cc2)cc1 | 163 to 165 °C
Cc1ccc(/C=C/c2ccc(Cl)cc2[N+](=O)[O-])c([N+](=O)[O-])c1 | 230 °C
CN1CCN(Cc2ccc3c(c2)Cc2c(-c4ccsc4)n[nH]c2-3)CC1 | 115 to 117 °C
COC(=O)C(Oc1ccc(Cl)cc1)c1ccc(Oc2cccc(C(F)(F)F)c2)cc1 (configuration not stated) | 79 to 82 °C
O=C(CCl)Nc1ccc2ncnc(Nc3cccc(Br)c3)c2c1 | > 300 °C
N#CCc1cccc2cnccc12 | 130 to 131 °C
Cc1ccc(-n2ncc(C(=O)Nc3ccc(N4CCC(N5CCOCC5)CC4)c(C#N)c3)c2C)cc1 | 243 °C
CCCCCCCCSCCCN=C=O | 84 to 85 °C
CCN(CC)c1cc(F)cc2nc3n(c12)CCCN3c1ccc(Cl)cc1Cl | 142 to 145 °C
O=C(O)C(CCCN1C(=O)c2ccccc2C1=O)NS(=O)(=O)c1ccc(-c2ccc(Cl)cc2)cc1 (configuration not stated) | 179 to 181 °C
O=C1C(=O)N(c2ccc(Cl)c(Cl)c2)C(=O)N1c1cccc(C(F)(F)F)c1 | 116 °C
CCOc1nc(NCCCCC2CC(C)(C)NC(C)(C)C2)nc(NCCCCC2CC(C)(C)NC(C)(C)C2)n1 | 95 to 104 °C
Nc1ccc(-c2nnc(-c3ccccn3)nn2)nc1 | 207 to 209 °C
CC(=O)c1ccnc(N(C)C)c1 | 37 to 42 °C
CCNC(=O)/C=C/CSc1nc(N)cc(Cl)n1 | 160 to 161 °C
O=C1CCC(N2Cc3cc(CNC(=O)Nc4ccc(SC(F)(F)F)cc4)ccc3C2=O)C(=O)N1 (configuration not stated) | 218 to 220 °C
CCNCC(=O)Nc1ccc2c(c1)C(=O)c1cc(NC(=O)CNCC)ccc1C2=O | 145 °C
Fc1ccc(-c2ccn(CC3CCCNC3)c2-c2ccncc2)cc1 (configuration not stated) | 134 to 135 °C
Cn1cc(CS(C)(=O)=O)c(=O)c2ccc(Cl)cc21 | 215 to 216 °C
O=[N+]([O-])N=C1SCCN1Cc1ccncc1 | 151 to 152 °C
CCCCNS(=O)(=O)CC(O)(CCCC)C(O)C(N)CC1CCCCC1 (configuration not stated) | 164 to 165 °C
COc1ccc(C=NNC(=O)COc2ccc(C3=NNC(=O)CC3)cc2Cl)cc1 | 220 to 222 °C

Continued, values first:

melting point | Structure (SMILES)
170 to 171 °C | CCc1cnc(N2CCN(C(=O)c3ccc(CNc4ncnc5ccccc45)cc3)CC2)nc1
139 to 142 °C | O=c1oc(-c2ccc(OCc3ccccc3)cc2)cc(O)c1SCCc1ccccc1
260 °C | CCCCc1nc(O)c(CC(=O)O)c(=O)n1Cc1ccc(C(=O)O)cc1
134 °C | O=c1c(Br)c(OCc2ccccc2)ccn1CCc1ccsc1
45 °C | CO[C@@H]1C=C2C=C3C(=C(C)C(=O)N3Cc3ccccc3)C[C@]2(C)[C@@H](C)[C@H]1O
239 to 242 °C | CCCc1nc2c(C)cnc(C(=O)OC)c2n1Cc1ccc(-c2ccccc2-c2nnnn2C(c2ccccc2)(c2ccccc2)c2ccccc2)cc1
155 to 156 °C | CCOC(=O)c1cc2c3ccccc3n(Cc3ccccc3)c2c(C)n1
188 to 190 °C | O=C(O)c1cc(OCc2ccccc2)c(-c2ccccc2)c([N+](=O)[O-])c1
85 °C | COC(=O)C1Oc2ccc(Cl)cc2C(c2ccccc2)(C(C)(C)C)O1 (configuration not stated)
161 to 162 °C | O=c1c2nc(Br)n(Cc3ccccc3)c2ncn1Cc1ccccc1
202 to 203 °C | N#Cc1c(-c2ccc(C(F)(F)F)cc2)n(O)c2ccccc12
108 to 109 °C | COc1cc(COc2nn(C)cc2CO)ccc1OCc1nc(-c2ccccc2)oc1C
87 to 89 °C | O=C(O)C(Cc1ccccc1)Oc1c(Br)cc(-c2ccc(-c3c(Cc4ccccc4)sc4ccccc34)cc2)cc1Br (configuration not stated)
134 to 138 °C | COC(=O)CCc1cc2cc(Cl)ccc2n1S(=O)(=O)c1ccc2ncsc2c1
253 to 254 °C | N=C(Cc1ccccc1-n1cnc2cnc3ccc(-c4ccccc4)cc3c21)NO
203 to 205 °C | CCCn1nc2c(N)nc3ccccc3c2c1CC(C)(C)NC(=O)c1cccnc1

melting point | Structure (SMILES)
136 to 137 °C | CCOC(=O)c1c(Cn2cncn2)nc2sc(C)c(C)c2c1-c1ccc(OC)c(OC)c1
207 to 208 °C | COc1ccc(-c2ccc(C(N)=O)c(Cl)c2)cc1
161 to 163 °C | Cc1ccc(CCNC(=O)c2ccc3n2Cc2ccccc2N(C(=O)c2ccc(-c4ccccc4C)c(C)c2)C3)cc1
147 to 149 °C | N#Cc1cccc(CN2C(=O)c3ccccc3C2=O)c1
> 300 °C | NC(=O)c1c[nH]c2c1ccc1c3ccccc3[nH]c12
83 to 85 °C | COc1ccc(CCN2CCN(c3cccccc3=O)CC2)cc1OC
203 to 204 °C | Cc1nc(N2C[C@@H](O)CC2=O)sc1C(=O)NCc1ccccc1
83.5 to 86 °C | C=C(C(=O)c1ccc(OC)c(Cl)c1Cl)c1ccccc1
78 to 90 °C | O=C(O)Cc1c(-c2ccccc2)nn2cccnc12
181 to 183 °C | Nc1ncc(-c2ccccc2)nc1-c1ccc(O)cc1
144 to 146 °C | COCc1cccc(CCC(O)c2ccccc2)c1NC(=O)CC1c2ccccc2Oc2ccccc21 (configuration not stated)
98 to 99 °C | O=C(CCCCCNC1(c2ccccc2Cl)C(=O)Nc2ccc(Cl)cc21)OCc1ccccc1 (configuration not stated)
191 to 192 °C | NC(=O)c1cccc(-c2ccnc3cc(Cc4cccc(C(F)(F)F)c4)sc23)c1
101 to 103 °C | Nc1cccc(Oc2ncccc2C(=O)NCc2ccccc2Cl)c1
181 °C | CCOC(=O)N1CCC(Nc2nc3ccccc3n2Cc2ccc(F)cc2)CC1
